{"source": "PubChem BioAssay AID2060330", "about": "(Molecular Pharmacology Branch, DTP, NCI, 2025);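 note: spheroids exposed to compounds for seven days before readout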;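 for viability, T/C: T/C percent relative to DMSO vehicle wells set as 100% viability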", "tested_on": "LG0703-F948-PDC spheroids with HUVEC/MSC, viability", "assay": "Anticancer human tumor LG0703-F948-PDC patient-derived lung adenocarcinoma cell line growth inhibition [IpAb]", "conditions": "for IC50: curve of first compound; for viability, T/C: stronger effect = lower value", "excerpt": "Combinatorial screen of targeted agents with ipatasertib and abemaciclib in multi-cell type tumor spheroids\nA high-throughput screen of multi-cell type tumor spheroids was designed to identify active combinations of targeted small molecules and ipatasertib or abemaciclib. Complex spheroids include a stromal component modeled by human endothelial cells (HUVEC) and fibroblasts modeled by human mesenchymal stem cells (MSCs). The concentration ranges selected for each drug and investigational agent were based upon clinically achievable concentrations if the clinical Cmax of the agent was known.\nCompounds. The drugs and investigational agents: ipatasertib (NSC767898), abemaciclib(NSC768073), selumetinib (NSC741078), trametinib (758246), adavosertib (NSC754352), everolimus (NSC733504), sapanisertib (NSC764658), vemurafenib (NSC761431), venetoclax (NSC766270), copanlisib (NSC809693), apelisib (NSC765974), palbociblib (NSC758247), vemurafenib (NSC761431), dabrafenib (NSC764134), ravoxertinib (NSC781343), BMS-387032 (NSC767048), sotorasib (NSC818433), talazoparib (NSC767125) and afursertib (NSC778305), were obtained from the National Cancer Institute (NCI) Developmental Therapeutics Program Chemical Repository. The FDA-approved anticancer drug set is available from the NCI Developmental Therapeutics Program. […] The stock solutions were prepared in dimethyl sulfoxide (DMSO, Sigma-Aldrich, St. Louis, MO, cat. D2650) at 800-fold the tested concentration and stored at -70 degrees C prior to their use. All drugs and investigational agents were tested over a range starting from a high concentration at or near the clinical Cmax and decreasing in half-log increments. If the clinical Cmax for an agent had not been determined, the highest concentration tested was 10 microM.\nNCI60 Cell Culture. NCI60 cell lines were obtained from the NCI Developmental Therapeutics Program Tumor Repository. For each lot of cells, the Repository performed Applied Biosystems AmpFLSTR Identifiler testing with PCR amplification to confirm consistency with the published Identifier STR profile for each cell line. Cells were kept in continuous culture for no more than 20 passages. The optimal seeding densities for each of the cell lines at each time point assessed were determined prior to performing the concentration response studies. Briefly, the NCI60 human tumor lines were grown as monolayers in RPMI 1640 medium supplemented with 10% FBS and 2 mmol/L L-glutamine.\nAn additional 9 lines were from the NCI60 cell line panel including MDA-MB-231 breast carcinoma, MDA-MB-468 breast carcinoma, MCF7 breast carcinoma, Hs578T breast carcinoma, MALME-3M melanoma, SK-MEL-2 melanoma, SK-OV-3 ovarian carcinoma, DU-145 prostate carcinoma, PC-3 prostate carcinoma, all cell lines along with major genetic alterations are listed on Table 2. Pooled donor human umbilical vein endothelial cells (HUVEC, Lonza, cat. CC-2519) and human mesenchymal stem cells (hMSC, Lonza, cat. PT-2501) were purchased from Lonza (Walkersville, MD).\nPDMR cell lines were grown in complete medium (DC medium): Dulbecco's modified Eagle's medium (DMEM)/F12 supplemented with 5% fetal bovine serum (FBS), 2 mM L-glutamine, 100 U/mL penicillin and 100 µg/ml streptomycin, 0.4 µg/ml hydrocortisone, 10 ng/ml epidermal growth factor (EGF) recombinant human protein, 24 µg/mL adenine, and 0.1 mg/mL primocin. During culture from frozen stock vials, PDMR cells were cultured in the same medium containing 10 µM Y-27632 (see Table 3). The PDCs were cultured in complete DMEM/F12 media without 10 microM Y-27632 dihydrochloride for at least two passages prior to the screen. The pooled donor HUVEC and hMSC were cultured in endothelial cell growth medium 2 (PromoCell, Heidelberg, Germany, cat. C-22011) and mesenchymal stem cell growth medium 2 (PromoCell, cat. C-28009), respectively. For all experiments, HUVEC and hMSC were used at passages </=5.\n[…]", "key": {"[1]": {"conditions": "second compound 0.1 µM, first compound 0.0316 µM"}, "[2]": {"conditions": "second compound 0.1 µM, first compound 0.1 µM"}, "[3]": {"conditions": "second compound 0.316 µM, first compound 0.0316 µM"}, "[4]": {"conditions": "second compound 0.316 µM, first compound 0.1 µM"}, "[5]": {"conditions": "second compound 1 µM, first compound 0.0316 µM"}, "[6]": {"conditions": "second compound 1 µM, first compound 0.1 µM"}, "[7]": {"conditions": "second compound 3.16 µM, first compound 0.0316 µM"}, "[8]": {"conditions": "second compound 3.16 µM, first compound 0.1 µM"}, "[9]": {"conditions": "second compound 10 µM, first compound 0.0316 µM"}, "[10]": {"conditions": "second compound 10 µM, first compound 0.1 µM"}}, "data": [{"smiles": "C=CCn1c(=O)c2cnc(Nc3ccc(N4CCN(C)CC4)cc3)nc2n1-c1cccc(C(C)(C)O)n1", "note": "+ CC(C)NCC(C(=O)N1CCN(c2ncnc3c2C(C)CC3O)CC1)c1ccc(Cl)cc1", "values": [{"measurement": "IC50", "setting": "second compound 0.1 µM", "result": 704, "unit": "nM"}, {"measurement": "IC50", "setting": "second compound 0.316 µM", "result": 243, "unit": "nM"}, {"measurement": "IC50", "setting": "second compound 1 µM", "result": "< 31.6", "unit": "nM"}, {"measurement": "IC50", "setting": "second compound 3.16 µM", "result": "< 31.6", "unit": "nM"}, {"measurement": "IC50", "setting": "second compound 10 µM", "result": "< 31.6", "unit": "nM"}, {"measurement": "viability, T/C", "setting": "[1]", "result": 97.8, "unit": "%"}, {"measurement": "viability, T/C", "setting": "[2]", "result": 94.6, "unit": "%"}, {"measurement": "viability, T/C", "setting": "second compound 0.1 µM, first compound 0.316 µM", "result": 72.4, "unit": "%"}, {"measurement": "viability, T/C", "setting": "second compound 0.1 µM, first compound 1 µM", "result": 40.5, "unit": "%"}, {"measurement": "viability, T/C", "setting": "second compound 0.1 µM, first compound 3.16 µM", "result": 13.2, "unit": "%"}, {"measurement": "viability, T/C", "setting": "second compound 0.1 µM, first compound 10 µM", "result": 4.37, "unit": "%"}, {"measurement": "viability, T/C", "setting": "[3]", "result": 75.6, "unit": "%"}, {"measurement": "viability, T/C", "setting": "[4]", "result": 66.5, "unit": "%"}, {"measurement": "viability, T/C", "setting": "second compound 0.316 µM, first compound 0.316 µM", "result": 45.6, "unit": "%"}, {"measurement": "viability, T/C", "setting": "second compound 0.316 µM, first compound 1 µM", "result": 17.1, "unit": "%"}, {"measurement": "viability, T/C", "setting": "second compound 0.316 µM, first compound 3.16 µM", "result": 5.97, "unit": "%"}, {"measurement": "viability, T/C", "setting": "second compound 0.316 µM, first compound 10 µM", "result": 2.34, "unit": "%"}, {"measurement": "viability, T/C", "setting": "[5]", "result": 44.7, "unit": "%"}, {"measurement": "viability, T/C", "setting": "[6]", "result": 36.7, "unit": "%"}, {"measurement": "viability, T/C", "setting": "second compound 1 µM, first compound 0.316 µM", "result": 37.1, "unit": "%"}, {"measurement": "viability, T/C", "setting": "second compound 1 µM, first compound 1 µM", "result": 16.5, "unit": "%"}, {"measurement": "viability, T/C", "setting": "second compound 1 µM, first compound 3.16 µM", "result": 7.72, "unit": "%"}, {"measurement": "viability, T/C", "setting": "second compound 1 µM, first compound 10 µM", "result": 2.58, "unit": "%"}, {"measurement": "viability, T/C", "setting": "[7]", "result": 39.3, "unit": "%"}, {"measurement": "viability, T/C", "setting": "[8]", "result": 39.6, "unit": "%"}, {"measurement": "viability, T/C", "setting": "second compound 3.16 µM, first compound 0.316 µM", "result": 28.3, "unit": "%"}, {"measurement": "viability, T/C", "setting": "second compound 3.16 µM, first compound 1 µM", "result": 13.2, "unit": "%"}, {"measurement": "viability, T/C", "setting": "second compound 3.16 µM, first compound 3.16 µM", "result": 6.52, "unit": "%"}, {"measurement": "viability, T/C", "setting": "second compound 3.16 µM, first compound 10 µM", "result": 3.11, "unit": "%"}, {"measurement": "viability, T/C", "setting": "[9]", "result": 28.6, "unit": "%"}, {"measurement": "viability, T/C", "setting": "[10]", "result": 24.1, "unit": "%"}, {"measurement": "viability, T/C", "setting": "second compound 10 µM, first compound 0.316 µM", "result": 15.9, "unit": "%"}, {"measurement": "viability, T/C", "setting": "second compound 10 µM, first compound 1 µM", "result": 5.77, "unit": "%"}, {"measurement": "viability, T/C", "setting": "second compound 10 µM, first compound 3.16 µM", "result": 5.31, "unit": "%"}, {"measurement": "viability, T/C", "setting": "second compound 10 µM, first compound 10 µM", "result": 6.51, "unit": "%"}]}, {"smiles": "CC(C)n1nc(-c2ccc3oc(N)nc3c2)c2c(N)ncnc21", "note": "+ CC(C)NCC(C(=O)N1CCN(c2ncnc3c2C(C)CC3O)CC1)c1ccc(Cl)cc1", "values": [{"measurement": "IC50", "setting": "second compound 0.1 µM", "result": 2.49, "unit": "nM"}, {"measurement": "IC50", "setting": "second compound 0.316 µM", "result": 0.914, "unit": "nM"}, {"measurement": "IC50", "setting": "second compound 1 µM", "result": "< 0.316", "unit": "nM"}, {"measurement": "IC50", "setting": "second compound 3.16 µM", "result": "< 0.316", "unit": "nM"}, {"measurement": "IC50", "setting": "second compound 10 µM", "result": "< 0.316", "unit": "nM"}, {"measurement": "viability, T/C", "setting": "second compound 0.1 µM, first compound 0.000316 µM", "result": 77.5, "unit": "%"}, {"measurement": "viability, T/C", "setting": "second compound 0.1 µM, first compound 0.001 µM", "result": 64.8, "unit": "%"}, {"measurement": "viability, T/C", "setting": "second compound 0.1 µM, first compound 0.00316 µM", "result": 47.5, "unit": "%"}, {"measurement": "viability, T/C", "setting": "second compound 0.1 µM, first compound 0.01 µM", "result": 25.9, "unit": "%"}, {"measurement": "viability, T/C", "setting": "[1]", "result": 18.9, "unit": "%"}, {"measurement": "viability, T/C", "setting": "[2]", "result": 18.9, "unit": "%"}, {"measurement": "viability, T/C", "setting": "second compound 0.316 µM, first compound 0.000316 µM", "result": 65, "unit": "%"}, {"measurement": "viability, T/C", "setting": "second compound 0.316 µM, first compound 0.001 µM", "result": 49, "unit": "%"}, {"measurement": "viability, T/C", "setting": "second compound 0.316 µM, first compound 0.00316 µM", "result": 32, "unit": "%"}, {"measurement": "viability, T/C", "setting": "second compound 0.316 µM, first compound 0.01 µM", "result": 21.4, "unit": "%"}, {"measurement": "viability, T/C", "setting": "[3]", "result": 16.4, "unit": "%"}, {"measurement": "viability, T/C", "setting": "[4]", "result": 12.6, "unit": "%"}, {"measurement": "viability, T/C", "setting": "second compound 1 µM, first compound 0.000316 µM", "result": 49.1, "unit": "%"}, {"measurement": "viability, T/C", "setting": "second compound 1 µM, first compound 0.001 µM", "result": 37, "unit": "%"}, {"measurement": "viability, T/C", "setting": "second compound 1 µM, first compound 0.00316 µM", "result": 22.8, "unit": "%"}, {"measurement": "viability, T/C", "setting": "second compound 1 µM, first compound 0.01 µM", "result": 14, "unit": "%"}, {"measurement": "viability, T/C", "setting": "[5]", "result": 11.2, "unit": "%"}, {"measurement": "viability, T/C", "setting": "[6]", "result": 9.31, "unit": "%"}, {"measurement": "viability, T/C", "setting": "second compound 3.16 µM, first compound 0.000316 µM", "result": 39.7, "unit": "%"}, {"measurement": "viability, T/C", "setting": "second compound 3.16 µM, first compound 0.001 µM", "result": 24.9, "unit": "%"}, {"measurement": "viability, T/C", "setting": "second compound 3.16 µM, first compound 0.00316 µM", "result": 15.1, "unit": "%"}, {"measurement": "viability, T/C", "setting": "second compound 3.16 µM, first compound 0.01 µM", "result": 8.55, "unit": "%"}, {"measurement": "viability, T/C", "setting": "[7]", "result": 7.95, "unit": "%"}, {"measurement": "viability, T/C", "setting": "[8]", "result": 7.22, "unit": "%"}, {"measurement": "viability, T/C", "setting": "second compound 10 µM, first compound 0.000316 µM", "result": 31.7, "unit": "%"}, {"measurement": "viability, T/C", "setting": "second compound 10 µM, first compound 0.001 µM", "result": 18.1, "unit": "%"}, {"measurement": "viability, T/C", "setting": "second compound 10 µM, first compound 0.00316 µM", "result": 10.4, "unit": "%"}, {"measurement": "viability, T/C", "setting": "second compound 10 µM, first compound 0.01 µM", "result": 16.2, "unit": "%"}, {"measurement": "viability, T/C", "setting": "[9]", "result": 5.1, "unit": "%"}, {"measurement": "viability, T/C", "setting": "[10]", "result": 29.5, "unit": "%"}]}]}
